Among the data in patent US10829483B2, “Thiophene, manufacturing method thereof, and pharmaceutical application of same” (CSTONE PHARMACEUTICAL (SUZHOU) CO., LTD., priority 2016, dated 2020) are IC50 values, retold here.

What is called IC50 is the concentration that gives 50% inhibition.

This assay deals with URAT-1 (uric acid transporter) (Homo sapiens (Human), UniProt Q96S37). In words: Inhibition of 14C uric acid transport by HEK293 cell line stably transfected with the URAT-1 gene. The format is cell-based. The conditions noted are these: URAT-1 (HEK293) cells; 14C-labelled uric acid 50 um, 10 min at 37° C.; read-out: IC50 (inhibition against URAT-1). On the procedure:
Determination of the IC50 value of the inhibitory activity of the compound against uric acid reabsorption by the HEK293 cell line stably transfected with the URAT-1 (uric acid transporter) gene.
URAT-1 (HEK293) cell line: the HEK293 cell line stably transfected with the URAT-1 gene
cell culture medium: DMEM culture medium added 10% fetal bovine serum (FBS), 1% sodium pyruvate and […] G418.
Uric acid solution labeled by ^14C.
1) the supernatant of cell culture was aspirated, and cells was washed with 10 mL PBS.
2) preheated trypsin was added into the cell culture flask, and the cell culture flask was rotated to make trypsin covering onto the bottom of cell culture flask equably.
3) the cells were suspended with 10-15 mL of culture medium in each T150 flask, took 0.1 mL of cell suspension and diluted it with two volumes of trypan blue solution to count the cells.
4) cells were diluted to 2.5×10^5/mL with the culture medium, and the diluted cells were added into a rat tail collagen-coated 24-well plate (800 uL/well, 2×10^5 cells/well). The plate was incubated overnight at 37° C. in a 5% CO2 incubator.
1) cells were seeded into 24-well plate, and supernatant was discarded after 16-18 h. The cells were washed twice using 600 ul HBSS buffer.
2) HBSS buffer was removed and 180 ul of HBSS buffer was added into each well again.
1) compounds were dissolved into 100% DMSO, and diluted into 6 concentration points by 3-fold dilution, or into 2 concentration points by 10-fold dilution, and the highest starting concentration was 50 mM.
2) 5 ul DMSO solution in step 1) was transferred into 120 ul of HBSS buffer to make a 25-fold dilution.
3) 10 ul diluted solution in step 2) was added into 24-well plate, and the plate was incubated for 15 min at 37° C. in a 5% CO2 incubator. The final concentration of DMSO is 0.2%. The control well contained 0.2% DMSO without compound.
^14C-labelled uric acid was diluted and added into plate, and the final concentration is 50 um. The plate was incubated for 10 min at 37° C. in a 5% CO2 incubator. After supernatant was discarded, cells were washed with HBSS buffer twice. Cells was lysed with 0.1M NaOH. And then cell lysis solution was collected into liquid scintillation tube and added with liquid scintillation solution. The signal was read by liquid scintillation counter Tri-Carb. e) data analysis URAT-1 inhibition by the treatment of the compounds was analyzed by calculating the percentage of inhibition. Non-linear fitting analysis of percent inhibition (inh %) data using GraphPad Prism software to generate the IC50 value.

Chain of URAT-1 (uric acid transporter) (Q96S37 whole entry): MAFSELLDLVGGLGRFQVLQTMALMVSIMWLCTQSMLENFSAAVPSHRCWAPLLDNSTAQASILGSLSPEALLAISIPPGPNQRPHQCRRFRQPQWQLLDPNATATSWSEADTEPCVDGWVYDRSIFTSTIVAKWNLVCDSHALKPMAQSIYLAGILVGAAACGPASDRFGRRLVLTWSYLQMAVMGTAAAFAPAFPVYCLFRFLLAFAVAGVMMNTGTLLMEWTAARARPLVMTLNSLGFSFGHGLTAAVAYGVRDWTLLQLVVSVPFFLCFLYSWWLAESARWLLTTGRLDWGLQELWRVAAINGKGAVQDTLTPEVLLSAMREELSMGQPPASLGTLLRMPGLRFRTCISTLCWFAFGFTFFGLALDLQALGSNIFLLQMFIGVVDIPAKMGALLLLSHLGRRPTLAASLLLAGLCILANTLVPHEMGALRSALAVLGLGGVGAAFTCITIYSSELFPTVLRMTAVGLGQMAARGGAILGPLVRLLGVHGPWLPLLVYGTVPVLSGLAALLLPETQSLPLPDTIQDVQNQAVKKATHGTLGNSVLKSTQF

As to `O=C(O)CSc1nnc(Br)n1-c1sc(C2CC2)c2c1CCC2` [WX058], the concentration for half-maximal inhibition (IC50) is greater than 20 µM.

For the compound `O=C(O)CSc1nnc(Br)n1-c1sc(-c2cccc(F)c2)c2c1CCCC2` [WX007], the IC50 lay within 2 to 20 µM.

Turning to `O=C(O)C1(Sc2nnc(Br)n2-c2sc(C3CC3)c3c2CCCC3)CCCC1` [WX030], the IC50 is less than 2 µM.

Regarding `O=C(O)CSc1nncn1-c1sc(-c2cccc(F)c2)c2c1CCCC2` [WX020], the IC50 was greater than 20 µM.

Take `O=C(O)CSc1nnc(Br)n1-c1sc(-c2cccc(F)c2)c2c1CCC2` [WX039]: the IC50 is greater than 20 µM.

For `CN(C)c1ccc(-c2sc(-n3cnnc3SCC(=O)O)c3c2CCC3)cc1Br` [WX057], the IC50 fell in the range of 2 to 20 µM.

Take `CC(C)(Sc1nnc(Br)n1-c1sc(C2CC2)c2c1CCCC2)C(=O)O` [WX027]: the IC50 was less than 2 µM.

Consider `CC(C)(Sc1nnc(Br)n1-c1sc(-c2ccc(F)c(F)c2)c2c1CCCC2)C(=O)O` [WX013], for which the IC50 was less than 2 µM.

Take `O=C(O)CSc1nnc(Br)n1-c1sc(-c2ccc(Cl)c(Cl)c2)c2c1CCCC2` [WX019]: the IC50 lay within 2 to 20 µM.

For the compound `O=C(O)CSc1nnc(Br)n1-c1sc(-c2ccc(Cl)cc2)c2c1CCC2` [WX040], the IC50 is greater than 20 µM.

Turning to `CC(C)(Sc1nnc(Br)n1-c1sc(-c2ccncn2)c2c1CCCC2)C(=O)O` [WX025], the IC50 is greater than 20 µM.

With `O=C(O)CSc1nncn1-c1sc(C2CC2)c2c1CCCC2` [WX002], the IC50 is greater than 20 µM.

For `Cc1cc(-n2c(Br)nnc2SC(C)(C)C(=O)O)sc1-c1ccccc1` [WX081], the IC50 lay in the range of 2 to 20 µM.

Regarding `Cc1cc(-n2cnnc2SCC(=O)O)sc1-c1ccc(C(F)(F)F)cc1` [WX097], the IC50 is greater than 20 µM.

As for `O=C(O)CSc1nnc(Br)n1-c1sc(-c2ccccc2)c2c1OCCO2` [WX099], the IC50 is greater than 20 µM.

For `Cc1cc(-n2cnnc2SCC(=O)O)sc1-c1ccc(F)cc1` [WX095], the IC50 is greater than 20 µM.

Consider `O=C(O)CSc1nnc(Br)n1-c1sc(-c2ccc(F)c(F)c2)c2c1CCCC2` [WX008], for which the IC50 lay in the range of 2 to 20 µM.

Regarding `O=C(O)C1(Sc2nnc(Br)n2-c2cc(Cl)c(C3CC3)s2)CCC1` [WX068], the IC50 was 2 to 20 µM.

In the case of `CCOC(=O)C(C)Sc1nncn1-c1cc(Br)c(C2CC2)s1` (centres unmarked) [WX074], the IC50 was greater than 20 µM.

For `Cn1cc(-c2sc(-n3cnnc3SCC(=O)O)c3c2CCC3)cn1` [WX056], the IC50 is greater than 20 µM.

On to `COc1ccc(-c2sc(-n3cnnc3SCC(=O)O)cc2C)cc1` [WX096], for which the IC50 is greater than 20 µM.

Regarding `CC(Sc1nnc(Br)n1-c1sc(-c2ccccc2)c2c1CCCC2)C(=O)O` (centres unmarked) [WX004], the IC50 was 2 to 20 µM.

Regarding `CC(C)(C)c1ccc(-c2sc(-n3cnnc3SCC(=O)O)c3c2CCC3)cc1` [WX048], the IC50 was greater than 20 µM.

For `Cc1cc(-n2c(Br)nnc2SC(C)C(=O)O)sc1-c1cccc(F)c1` (centres unmarked) [WX087], the IC50 was in the range of 2 to 20 µM.

For `O=C(O)CSc1nnc(Br)n1-c1sc(-c2ccc(Cl)c(Cl)c2)c2c1CCC2` [WX041], the IC50 is greater than 20 µM.

Turning to `Cc1cc(-n2c(Br)nnc2SC(C)C(=O)O)sc1-c1ccc(Cl)cc1` (centres unmarked) [WX086], the IC50 was 2 to 20 µM.

On to `Cc1cc(-n2c(Br)nnc2SCC(=O)O)sc1-c1ccc(C(C)(C)C)cc1` [WX085], for which the IC50 was greater than 20 µM.

`CC(C)C(Sc1nnc(Br)n1-c1sc(C2CC2)c2c1CCCC2)C(=O)O` (centres unmarked) [WX028]: the IC50 was less than 2 µM.

Turning to `Cc1cc(-n2c(Br)nnc2SC(C)(C)C(=O)O)sc1C1CC1` [WX089], the IC50 lay within 2 to 20 µM.

In the case of `O=C(O)C(Sc1nnc(Br)n1-c1sc(C2CC2)c2c1CCC2)c1ccccc1` (centres unmarked) [WX064], the IC50 is 2 to 20 µM.

In the case of `CC(Sc1nnc(Br)n1-c1sc(-c2ccc(Cl)c(Cl)c2)c2c1CCCC2)C(=O)O` (centres unmarked) [WX018], the IC50 was in the range of 2 to 20 µM.

Turning to `O=C(O)CSc1nnc(Br)n1-c1sc(-c2ccc(C(F)(F)F)cc2)c2c1CCC2` [WX044], the IC50 was greater than 20 µM.

As to `CC(Sc1nnc(Br)n1-c1sc(-c2ccc(S(C)(=O)=O)cc2)c2c1CCCC2)C(=O)O` (centres unmarked) [WX015], the IC50 is greater than 20 µM.

`COc1ccc(-c2sc(-n3c(Br)nnc3SC(C)C(=O)O)c3c2CCCC3)cc1` (centres unmarked) [WX016]: the IC50 fell in the range of 2 to 20 µM.

On to `Cc1ccc(-c2sc(-n3c(Br)nnc3SCC(=O)O)c3c2CCC3)cc1` [WX042], for which the IC50 was greater than 20 µM.

As for `CC(Sc1nnc(Br)n1-c1cc(Cl)c(C2CC2)s1)C(=O)O` (centres unmarked) [WX070], the IC50 was 2 to 20 µM.

Take `CC(C)c1nnc(SCC(=O)O)n1-c1sc(C2CC2)c2c1CCC2` [WX101]: the IC50 was greater than 20 µM.

For the compound `Cc1cc(-n2c(Br)nnc2SC(C)C(=O)O)sc1C1CC1` (centres unmarked) [WX094], the IC50 is less than 2 µM.

On to `Cc1cc(-n2c(Br)nnc2SC(C)C(=O)O)sc1-c1ccccc1` (centres unmarked) [WX080], for which the IC50 lay within 2 to 20 µM.

Regarding `Cc1cc(-n2c(Br)nnc2SC2(C(=O)O)CCC2)sc1C1CC1` [WX093], the IC50 is less than 2 µM.

Regarding `O=C(O)CSc1nncn1-c1sc(-c2cccc(Cl)c2)c2c1CCC2` [WX052], the IC50 was greater than 20 µM.

Regarding `CC(C)(Sc1nnc(Br)n1-c1cc(Cl)c(C2CC2)s1)C(=O)O` [WX067], the IC50 was less than 2 µM.

In the case of `COC(=O)C(C)Sc1nncn1-c1cc(Br)c(-c2ccccc2)s1` (centres unmarked) [WX075], the IC50 fell in the range of 2 to 20 µM.

`O=C(O)CSc1nncn1-c1sc(-c2ccc(Cl)c(Cl)c2)c2c1CCC2` [WX055]: the IC50 was greater than 20 µM.

For the compound `CC(Sc1nnc(Br)n1-c1sc(C2CC2)c2c1CCC2)C(=O)O` (centres unmarked) [WX061], the IC50 was less than 2 µM.

Regarding `CN(C)c1ccc(-c2sc(-n3cnnc3SCC(=O)O)c3c2CCC3)cc1` [WX053], the IC50 is greater than 20 µM.

Take `O=C(O)C1(Sc2nnc(Br)n2-c2sc(C3CC3)c3c2CCCC3)CCC1` [WX029]: the IC50 was less than 2 µM.

For the compound `Cc1cc(-n2c(Br)nnc2SC(C(=O)O)C(C)C)sc1C1CC1` (centres unmarked) [WX088], the IC50 was less than 2 µM.

Turning to `CC(C)(Sc1nnc(Br)n1-c1sc(-c2ccccc2)c2c1CCCC2)C(=O)O` [WX005], the IC50 was less than 2 µM.

Consider `O=C(O)C1(Sc2nnc(Br)n2-c2sc(C3CC3)c3c2CCC3)CCCC1` [WX060], for which the IC50 is less than 2 µM.

As to `O=C(O)CSc1nnc(Br)n1-c1sc(-c2ccc(F)cc2)c2c1CCCC2` [WX006], the IC50 was in the range of 2 to 20 µM.

`CC1(C)CCc2c(C3CC3)sc(-n3c(Br)nnc3SC(C)(C)C(=O)O)c2C1` [WX034]: the IC50 was less than 2 µM.

For the compound `Cc1cc(-n2c(Br)nnc2SCC(=O)O)sc1-c1ccc(C(F)(F)F)cc1` [WX084], the IC50 is greater than 20 µM.

For `CCOC(=O)C(C)(C)Sc1nnc(Br)n1-c1sc(C(=O)Nc2ccc(F)c(F)c2)c2c1CCCC2` [WX100], the IC50 is greater than 20 µM.

Take `O=C(O)C1(Sc2nnc(Br)n2-c2sc(C3CC3)c3c2CCC3)CCC1` [WX059]: the IC50 is less than 2 µM.

Regarding `CNc1c(Br)cc(-c2sc(-n3cnnc3SC(C)(C)C(=O)O)c3c2CCCC3)cc1Br` [WX024], the IC50 fell in the range of 2 to 20 µM.

For the compound `COc1ccc(-c2sc(-n3cnnc3SCC(=O)O)c3c2CCC3)cc1` [WX049], the IC50 is greater than 20 µM.

As to `O=C(O)CSc1nnc(Br)n1-c1sc(-c2ccccc2)c2c1CCC2` [WX037], the IC50 was greater than 20 µM.

Regarding `CC(Sc1nncn1-c1sc(C2CC2)c2c1CCCC2)C(=O)O` (centres unmarked) [WX036], the IC50 is greater than 20 µM.

Regarding `CC(C)(C)c1ccc(-c2sc(-n3c(Br)nnc3SCC(=O)O)c3c2CCC3)cc1` [WX046], the IC50 was greater than 20 µM.

Consider `Cc1cc(-n2c(Br)nnc2SCC(=O)O)sc1C1CC1` [WX078], for which the IC50 is greater than 20 µM.

For the compound `O=C(O)CSc1nnc(Br)n1-c1sc(-c2ccccc2)c2c1CCCC2` [WX003], the IC50 lay within 2 to 20 µM.
